Like-named read-outs stand apart in the source and are kept apart here.
Legend:
[1] = tested on: mouse peritoneal macrophage; test: In vitro tests on inhibition of foaming of macrophage with mouse peritoneal macrophage (cholesteryl ester formation); assay type: cell-based, mouse (female ICR); details: 16 hours at 37° C., read-out: CE (%) (cholesteryl ester-forming rate, ratio to the control)
Experimental: (1) In vitro tests on inhibition of foaming of macrophage with mouse peritoneal macrophage:
The necks of 15-week old female ICR mice (Japan SLC) were cut off. After blood-letting, Hanks buffer solution (Nissui Seiyaku Co., Ltd.) was injected into the abdominal cavity of each mouse. The abdomen was massaged and then the buffer solution was rapidly recovered, centrifuged at 1000 rotations for 5 minutes to collect the peritoneal macrophages. The peritoneal macrophases thus collected were then suspended in GIT medium (Wako Pure Chemical Industries, Ltd.), and the suspension was spread on a 24-hole microplate. After the cultivation at 37° C. in 5% CO2 for 2 hours, the medium was replaced with a Dulbecoo Modified Eagle's MEM medium (Nissui Seiyaku Co., Ltd.). After the cultivation at 37° C. in 5% CO2 for additional 16 hours, the following substances were added in the following order:
(1) subject: dissolved in DMSO (Wako Pure Chemical Industries, Ltd.)
PC: phosphatidyl choline (a product of Funakoshi)
PS: phosphatidyl serine (ditto)
DCP: dicetyl phosphate (ditto)
CHOL.: cholesterol (Sigma).
After further cultivation at 37° C. in 5% CO2 for 16 hours, the lipid fraction was extracted with chloroform and methanol. The lipid fraction thus extracted was dissolved in isopropyl alcohol, and the formed cholesteryl ester (CE) was determined by an enzymatic coloring method. The cholesteryl ester-forming rate of each compound was calculated in terms of the ratio thereof to the control. The cytotoxicity was examined by microscopic observation of the shape of the cell.
The pharmacological effects of the compounds given in Table 2 were evaluated in the same manner as that of Example 3.

total blood cholesterol = test: Effect of reducing blood lipid of rabbit having high-cholesterol feed; assay type: in vivo, rabbit (male New Zealand white); details: 30 mg/kg/day mixed with high-cholesterol food, 14 days; based on the control; group of three rabbits
Experimental: (2) Effect of reducing blood lipid of rabit having high-cholesterol feed:
A high-cholesterol food (100 g/day/rabbit: ORC-4 of Oriental Yeast Co., Ltd. +0.5% cholesterol +0.5% olive oil) was given to each of male New Zealand white rabbits weighing about 2 kg for seven days to make them suffer from hypercholesterolemia.
In the next stage, the high-cholesterol food was still given to the rabbits and, in addition, 30 mg/kg/day/rabbit of the test compound (2) was continuously given in the form of a mixture thereof with the food to a group of three rabbits (test group) for 14 days. On the other hand, only the same high-cholesterol food as above was given in the equal dose to another group of three rabbits (control group).
After the continuous feeding for 14 days followed by fasting for one day, a small amount of the blood was taken from the parotid vein to determine the total blood cholesterol (latripo TC: a product of latron Co. Ltd.).

[2] = tested on: mouse peritoneal macrophage; details: dose 5 μM, microscopic observation
Acute Toxicity Test = test: Acute Toxicity Test; design: species or system mouse (8-week ddy); details: mouse, in vivo; oral, 0.5% Tween 80 suspension, six 8-week ddy mice, observed for one month
Text: The compound (2) was suspended in 0.5% Tween 80 solution.
The compound I-7 was suspended in 0.5% Tween 80 solution.

SMILES	activity at 5 µM ([1]; Table 1, ratio to control) [%]	total blood cholesterol decreasing rate (total blood cholesterol) [%]	Cytotoxicity ([2]; Table 1)	LD50 at 730 h (Acute Toxicity Test) [mg/kg]	activity at 5 µM ([1]; Table 2, ratio to control) [%]	Cytotoxicity ([2]; Table 2)
CCC(=O)n1c(SCCOCCSc2nc3ccccc3n2C(=O)CC)nc2ccccc21 [Compound (2)]	7	25	none	≥ 5000	–	–
c1ccc2[nH]c(SCCCCCSc3nc4ccccc4[nH]3)nc2c1 [Compound I-7, 1,5-bis(2-benzimidazoylthio)pentane]	–	–	–	≥ 5000	–	–
c1ccc2[nH]c(SCCCCCCCCSc3nc4ccccc4[nH]3)nc2c1 [IV-2, 1,8-bis(2-benzimidazoylthio)octane]	–	–	–	–	28	none

— patent US5962493A, “2-mercaptobenzimidazole derivatives and antihyperlipemic agent or antiarteriosclerotic agent containing the same” (priority 1997, dated 1999)
